Data from patent US6620428B1, “Transdermally administered acetylcysteine as mucolytic agent” (Pharmacia AB, priority 1996, dated 2003).
Like-named read-outs stand apart in the source and are kept apart here.

Legend:
[1] = assay type: in vitro ADME; conditions: pig
From the text: Quantitative determination of N-Acetyl-L-cysteine in the receptor solution samples from the skin permeation studies in Example 2 and from the membrane permeation studies in Example 3, and quantitative determination of N-Acetyl-L-cysteine in the samples from the stability studies in Example 6, was done by the HPLC method described under Apparatus.
In vitro permeation of N-Acetyl-L-cysteine from the solutions 1, 2, 3 and 4 through dermatomed pig skin was investigated in Franz diffusion Cells.
Skin pieces with a thickness of approximately 765 μm were dermatomed from full thickness pig skin and mounted in glass diffusion cells with an available diffusion area of 1.8 cm^2. Pig skin is a fully accepted model for human skin. The solutions 1, 2, 3 and 4 were applied separately on the skin surfaces and the dermal sides were all exposed to 12.1 ml receptor solution consisting of 0.0001M hydrochloric acid equilibrated to 37±1° C.
Permeation of N-Acetyl-L-cysteine was followed by removing samples periodically and measuring the concentration by the HPLC method according to Example 1. An increase in the permeated amount of N-Acetyl-L-cysteine is seen in the following order: Propylene glycol, water, ethanol and propylene glycol containing 5% azone added used as solvents. […]

[2] = oral administration, cited from earlier work

Compound: CC(=O)N[C@@H](CS)C(=O)O [N-Acetyl-L-cysteine]
- estimated fluxes of N-Acetyl-L-cysteine through skin [1]: 4-48 μg/cm^2/h
- amount permeated through skin after 20 hours ([1]; 20 h): about 3000 μg/cm^2
- bioavailability when administered perorally [2]: 4%
- bioavailability when administered perorally ([2]; listed as N-Acetyl-cysteine): 4-10%
